The record followed here is patent publication US10513697B2, “CO2 profile cultivation” (Hoffmann-La Roche Inc., priority 2011, dated 2019).

The subject of experiment [1] is control cell line in HyQ medium (Control HyQ, non-transfected CHO cell line). Description: Re-alkalinization experiment (pHi recovery after CO2 acid load, flow cytometry) in control cell line. The format is cell-based, Chinese Hamster. Here is the method:
To examine the effect of hCAII expression on the cell internal pH value (pHi), the control cell line in HyQ medium and clone E11 were submitted to a short term acidification. This was achieved by mixing the cells with a CO2-containing solution and measuring the subsequent pHi recovery. […] A replicate of this experiment was performed with the carbonic anhydrase II inhibitor ethoxyzolamide and the results are presented in FIGS. 7(A) and 7(B). […] The following Table summarizes some of the characteristics of the tested cell lines.
pHi measurements were carried out by flow cytometry with the available pHi fluorescent indicator, Carboxy SNARF-1 AM (Molecular Probes Inc.). This dye is an acetoxymethyl (AM) ester that enter the cells readily and is hydrolyzed by non-specific esterases to yield the free fluorescent dye. SNARF-1 AM is very sensitive to pHi changes within the physiological range. It is excited between 488 nm and 530 nm and the fluorescence emission is monitored at two wavelengths, typically about 580 nm (FL2-H) and 640 nm (FL3-H). This is particularly interesting as the fluorescence emission wavelength ratio can be calculated foe a more accurate determination of the pHi. With the use of this ratiometric technique, a number of fluorescence measurement artifacts are eliminated, such as photobleaching, cell thickness and leakage and non-uniform loading of the indicator (SNARF® pH indicators, Product information, 2003, Molecular Probes Inc.). Herein the Pseudo-Null calibration method was used. […] A simplification can be considered if the calibration solutions are prepared in such a way that a concentration of weak base and a concentration of weak acid produce an equal but opposite change in pHi (i.e., pHa=pHb). The derived relationship for pHi determination is presented in Equation 10.11.
The regulation of the pHi was studied by flow cytometric analysis during intracellular acidification with bicarbonate. The kinetic of the transporters were examined. This test was made at physiological conditions. Therefore medium was used instead of buffer to account for influences of other medium components. To eliminate the activity of other cellular pHi-regulation systems, cells were pre-incubated in bicarbonate-free medium buffered with HEPES. […] This system consisting of two disposable 5 ml Luer-Lock syringes (B. Braun AG, Melsungen, Germany) connected by a short tubing and two Luer tubing connectors (Rotilabo®). These Luer connectors permitted the rapid and easy connection/disconnection of the 2 syringes.
Syringe A contained stained cells in bicarbonate-free production medium and syringe B production medium with 4.2 g/l NaHCO3 (corresponding to […] at pH 7.2). Both media contained 20 mM HEPES and were adjusted to pH 7.2 at 37° C. Acid-load was achieved by pressing bicarbonate-containing medium from syringe B into syringe A. A 5 ml syringe was pre-loaded with 22 μl of SNARF-1 AM (2 mM stock solution; Table 3). 1×10^6 cells, from the exponential phase, were harvested and washed once with 4 ml medium without bicarbonate. After which, the cell suspension was sucked (without air bubbles) into the pre-loaded fluorescence dye syringe, which was them closed with the Luer-stopper and gently mixed. […] The syringe B was discarded, syringe A was closed and after short mixing, the acid-loaded cells were analyzed by flow cytometry. Additionally, some samples were measured with the blood gas analyzer to determine the content of CO2 in medium during the experiment. […]

Experiment [2] concerns hCAII-expressing CHO cell clone E11. Description: Re-alkalinization experiment (pHi recovery after CO2 acid load, flow cytometry) in hCAII-expressing clone. Type of experiment: cell-based, Chinese Hamster.
Description: pHi measurements were carried out by flow cytometry with the available pHi fluorescent indicator, Carboxy SNARF-1 AM (Molecular Probes Inc.). This dye is an acetoxymethyl (AM) ester that enter the cells readily and is hydrolyzed by non-specific esterases to yield the free fluorescent dye. SNARF-1 AM is very sensitive to pHi changes within the physiological range. It is excited between 488 nm and 530 nm and the fluorescence emission is monitored at two wavelengths, typically about 580 nm (FL2-H) and 640 nm (FL3-H). This is particularly interesting as the fluorescence emission wavelength ratio can be calculated foe a more accurate determination of the pHi. […] Herein the Pseudo-Null calibration method was used. […] A simplification can be considered if the calibration solutions are prepared in such a way that a concentration of weak base and a concentration of weak acid produce an equal but opposite change in pHi (i.e., pHa=pHb). The derived relationship for pHi determination is presented in Equation 10.11.
Syringe A contained stained cells in bicarbonate-free production medium and syringe B production medium with 4.2 g/l NaHCO3 (corresponding to 25% CO2 at pH 7.2). Both media contained 20 mM HEPES and were adjusted to pH 7.2 at 37° C. Acid-load was achieved by pressing bicarbonate-containing medium from syringe B into syringe A. A 5 ml syringe was pre-loaded with 22 μl of SNARF-1 AM (2 mM stock solution; Table 3). 1×10^6 cells, from the exponential phase, were harvested and washed once with 4 ml medium without bicarbonate. After which, the cell suspension was sucked (without air bubbles) into the pre-loaded fluorescence dye syringe, which was them closed with the Luer-stopper and gently mixed. After a 25 min. period of incubation at 37° C. in the dark, with regularly mixing to avoid cell settling, followed dissolved gas and flow cytometric analysis. Three measurements of loaded cells in bicarbonate-free medium were made before acidification of cells cytoplasm. Afterwards, the syringe B was connected to syringe A and the double volume of NaHCO3-containing medium was added. The syringe B was discarded, syringe A was closed and after short mixing, the acid-loaded cells were analyzed by flow cytometry. Additionally, some samples were measured with the blood gas analyzer to determine the content of CO2 in medium during the experiment.
To test if the re-alkalinization effect was due to the hCAII-overexpression, the hCAII inhibitor ethoxyzolamide (ACTZ) was used. […]

In the case of `CCOc1ccc2nc(S(N)(=O)=O)sc2c1` [ACTZ, ethoxyzolamide], the “Steady state pHi” value is 7.02 in experiment [1] (Control HyQ + ACTZ, 100 μM ethoxyzolamide in media, pHe 7.10) and 6.87 in experiment [2] (Clone E11 + ACTZ, 100 μM ethoxyzolamide in media, pHe 7.11). In addition, the “pHi (acid load)” value is given as 6.84 in experiment [1] (Control HyQ + ACTZ, 100 μM ethoxyzolamide, about 9% CO2 acid load) and 6.61 in experiment [2] (Clone E11 + ACTZ, 100 μM ethoxyzolamide, about 9% CO2 acid load). The “pHi/min (5 min)” value in experiment [1] (Control HyQ + ACTZ, 100 μM ethoxyzolamide, initial recovery rate of first 5 min after acid load) was found to be 0.049 pHi/min; in experiment [2] (Clone E11 + ACTZ, 100 μM ethoxyzolamide, initial recovery rate of first 5 min after acid load), 0.057 pHi/min. Further, the “decrease on the re-alkalinization rate” value came out at 30% in experiment [1] (control cell line in HyQ medium, in the presence of the inhibitor) and 19% in experiment [2] (clone E11, in the presence of the inhibitor). The “time after exposure to CO2-containing medium at which steady state pHi was exceeded” value in experiment [1] (hCAII inhibited reaction, control cell line in HyQ medium (11 min. without inhibitor)) is 5 min; in experiment [2] (hCAII inhibited reaction, clone E11 (8 min. without inhibitor)) it was 5 min.
